Test results from patent US6465442B2, “Topical application of muscarinic and opioid agents for treatment of tinnitus” (priority 1999, dated 2002).
“And” between values parts separate entries of the source, which are not always exact repeats. Equal entries are not always repeated.

Experiments:
[1] = Otic solution administered by drops to the affected ear of patients complaining of tinnitus; format: in vivo, human
Procedure: A group of ten patients complaining of tinnitus were treated with an otic solution comprising about 500 μg/30 ml of neostigmine. One to two drops of the solution was administered to the affected ear about once every 4-6 hours. The patients reported relief within about 20 minutes after initial administration of the otic composition.

[2] = as above; format: in vivo, human; conditions: every 4-6 hrs.
[3] = individual tinnitus patients, neostigmine 500 μg/30 cc otic solution, every 4-6 hrs.
[4] = individual tinnitus patients, stadol 1 mg/30 cc otic solution
[5] = individual tinnitus patient, morphine 2 mg/30 cc otic solution

## CN(C)C(=O)Oc1cccc([N+](C)(C)C)c1 [neostigmine]
[1]; group of ten patients, about 500 μg/30 ml otic solution, one to two drops about once every 4-6 hours
  relief of the tinnitus symptoms reported by patients: significant relief
[1]; group of ten patients, about 500 μg/30 ml otic solution, one to two drops to affected ear
  time to relief after initial administration of the otic composition: ≤ 20 min
[1]; [3]
  Results (improvement): 90% and 80% (4×) and 70%
  Side Effects: None

## Oc1ccc2c(c1)[C@@]13CCCC[C@@]1(O)[C@@H](C2)N(CC1CCC1)CC3 [stadol, butorphanol]
[2]; [4]
  Results (improvement): 60% and 80% (2×)
  Side Effects: None

## CN1CC[C@]23c4c5ccc(O)c4O[C@H]2[C@@H](O)C=C[C@H]3[C@H]1C5 [morphine]
[2]; [5]
  Results (improvement): 60%
  Side Effects: None
